Measurements taken from patent US20090018149A1, “4,5,6,7-tetrahydrobenzo[b]thiophene derivatives and methods for medical intervention against mycobacterial infections” (priority 2002, published 2009).

Tested on: M. smegmatis expressing wildtype PknG
Type: cell-based, Mycobacterium smegmatis
Settings: 10 μM compound, RAW cells, 24 h postinfection; mutant or vector control cleared up to 85%, wild type pknG only 25%

NC(=O)c1c(NC(=O)C2CC2)sc2c1CCCC2 [Compound 237, 2-(Cyclopropanecarbonyl-amino)-4,5,6,7-tetrahydro-benzo[b]thiophene-3-carboxylic acid amide]
clearance of PknG expressing M. smegmatis in macrophages: as efficient as observed with the mutant or vector control transformants
